Assay results taken from the supplement of paper PMC10307832.

What was measured:
Test in all cases: relative viability (nuclei count vs DMSO), 5 days (fraction); higher = more cells survive
Dinaciclib = compound: CCc1cnn2c(NCc3ccc[n+]([O-])c3)cc(N3CCCC[C@H]3CCO)nc12 [Dinaciclib]
In short: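 Five library-drug doses, separated by factors of √10, were pinned into 1536-well plates holding lung cancer cell lines after an overnight stay at 37 °C. Cells were fixed, permeabilised and Hoechst-stained in one step after 5 days without medium change, then imaged at 4×. Viability compares treated-well with vehicle-well nuclei, counted in MetaXpress, as a median across plates. Passing plates had control CV below 25% and at least one doubling.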

Dinaciclib + Navitoclax = compound: CCc1cnn2c(NCc3ccc[n+]([O-])c3)cc(N3CCCC[C@H]3CCO)nc12 [Dinaciclib] + CC1(C)CCC(c2ccc(Cl)cc2)=C(CN2CCN(c3ccc(C(=O)NS(=O)(=O)c4ccc(N[C@H](CCN5CCOCC5)CSc5ccccc5)c(S(=O)(=O)C(F)(F)F)c4)cc3)CC2)C1 [Navitoclax] (partner 0.5 µM)
In short: (§1)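 Dosing by pin tool came one day after lung cancer cell lines were seeded in 1536-well plates, using either one drug or a fixed anchor-drug dose plus five library-drug doses (not always all listed) in √10 steps. After 5 days, nuclei were counted on 4× images. Relative viability is treated-well nuclei count divided by vehicle-well nuclei count, and values are medians of duplicate plates.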

Dinaciclib + Lapatinib = compound: CCc1cnn2c(NCc3ccc[n+]([O-])c3)cc(N3CCCC[C@H]3CCO)nc12 [Dinaciclib] + CS(=O)(=O)CCNCc1ccc(-c2ccc3ncnc(Nc4ccc(OCc5cccc(F)c5)c(Cl)c4)c3c2)o1 [Lapatinib] (partner 2 µM)
In short: as §1

Dinaciclib + Dasatinib = compound: CCc1cnn2c(NCc3ccc[n+]([O-])c3)cc(N3CCCC[C@H]3CCO)nc12 [Dinaciclib] + Cc1nc(Nc2ncc(C(=O)Nc3c(C)cccc3Cl)s2)cc(N2CCN(CCO)CC2)n1 [Dasatinib] (partner 0.075 µM)
In short: as §1

Dinaciclib + Vorinostat = compound: CCc1cnn2c(NCc3ccc[n+]([O-])c3)cc(N3CCCC[C@H]3CCO)nc12 [Dinaciclib] + O=C(CCCCCCC(=O)Nc1ccccc1)NO [Vorinostat] (partner 1 µM)
In short: as §1

Row | Cell Line | relative viability (Dinaciclib; 0.009487 µM) | relative viability (Dinaciclib; 0.03 µM) | relative viability (Dinaciclib; 0.09487 µM) | relative viability (Dinaciclib; 0.3 µM) | relative viability (Dinaciclib + Navitoclax; first compound 0.009487 µM) | relative viability (Dinaciclib + Navitoclax; first compound 0.03 µM) | relative viability (Dinaciclib + Navitoclax; first compound 0.09487 µM) | relative viability (Dinaciclib + Navitoclax; first compound 0.3 µM) | relative viability (Dinaciclib + Lapatinib; first compound 0.009487 µM) | relative viability (Dinaciclib + Lapatinib; first compound 0.03 µM) | relative viability (Dinaciclib + Lapatinib; first compound 0.09487 µM) | relative viability (Dinaciclib + Lapatinib; first compound 0.3 µM) | relative viability (Dinaciclib + Dasatinib; first compound 0.009487 µM) | relative viability (Dinaciclib + Dasatinib; first compound 0.03 µM) | relative viability (Dinaciclib + Dasatinib; first compound 0.09487 µM) | relative viability (Dinaciclib + Dasatinib; first compound 0.3 µM) | relative viability (Dinaciclib + Vorinostat; first compound 0.009487 µM) | relative viability (Dinaciclib + Vorinostat; first compound 0.03 µM) | relative viability (Dinaciclib + Vorinostat; first compound 0.09487 µM) | relative viability (Dinaciclib + Vorinostat; first compound 0.3 µM)
1 | NCI-H1944 | 0.971 | 0.166 | 0.141 | 0.149 | 1.19 | 0.67 | 0.177 | 0.169 | 0.936 | 0.169 | 0.143 | 0.147 | 0.267 | 0.117 | 0.117 | 0.13 | 0.522 | 0.172 | 0.11 | 0.133
2 | NCI-H2023 | 0.706 | 0.0772 | 0.0615 | 0.0696 | 0.929 | 0.0702 | 0.0635 | 0.0619 | 0.817 | 0.0669 | 0.0655 | 0.0585 | 0.393 | 0.0627 | 0.0546 | 0.0553 | 0.678 | 0.08 | 0.0556 | 0.0518
3 | NCI-H1650 | 0.943 | 0.174 | 0.134 | 0.148 | 1.17 | 0.144 | 0.0928 | 0.139 | 0.648 | 0.15 | 0.169 | 0.143 | 0.197 | 0.171 | 0.179 | 0.133 | 0.798 | 0.175 | 0.119 | 0.125
4 | NCI-H1395 | 0.637 | 0.308 | 0.263 | 0.272 | 1.06 | 0.263 | 0.299 | 0.267 | 0.506 | 0.314 | 0.292 | 0.276 | 0.411 | 0.289 | 0.268 | 0.228 | 0.537 | 0.269 | 0.273 | 0.224
5 | NCI-H2087 | 0.954 | 0.14 | 0.111 | 0.122 | 0.729 | 0.0652 | 0.0695 | 0.0583 | 0.828 | 0.168 | 0.15 | 0.136 | 0.808 | 0.0939 | 0.0743 | 0.0752 | 0.753 | 0.114 | 0.12 | 0.0878
6 | NCI-H838 | 0.88 | 0.173 | 0.128 | 0.137 | 0.901 | 0.226 | 0.13 | 0.118 | 0.239 | 0.106 | 0.0848 | 0.109 | 0.176 | 0.173 | 0.143 | 0.138 | 0.496 | 0.146 | 0.145 | 0.15
7 | NCI-H1793 | 0.78 | 0.227 | 0.152 | 0.138 | 0.42 | 0.17 | 0.139 | 0.134 | 0.389 | 0.112 | 0.18 | 0.147 | 0.372 | 0.2 | 0.0986 | 0.13 | 0.599 | 0.25 | 0.107 | 0.158
8 | LC-2-ad | 0.917 | 0.18 | 0.145 | 0.129 | 0.401 | 0.0677 | 0.067 | 0.0747 | 0.9 | 0.0784 | 0.058 | 0.0576 | 0.279 | 0.149 | 0.149 | 0.175 | 0.685 | 0.17 | 0.108 | 0.108
9 | HCC-78 | 0.914 | 0.326 | 0.175 | 0.199 | 0.763 | 0.35 | 0.107 | 0.136 | 0.75 | 0.806 | 0.125 | 0.136 | 0.379 | 0.181 | 0.148 | 0.162 | 0.457 | 0.372 | 0.229 | 0.186
10 | LOU-NH91 | 0.958 | 0.311 | 0.261 | 0.269 | 0.707 | 0.254 | 0.151 | 0.138 | 0.738 | 0.302 | 0.254 | 0.238 | 0.564 | 0.287 | 0.243 | 0.179 | 0.825 | 0.286 | 0.241 | 0.275
11 | NCI-H1734 | 0.824 | 0.145 | 0.133 | 0.14 | 0.714 | 0.122 | 0.07 | 0.0846 | 0.72 | 0.158 | 0.134 | 0.143 | 0.373 | 0.122 | 0.142 | 0.119 | 0.571 | 0.144 | 0.142 | 0.126
12 | NCI-H520 | 0.915 | 0.276 | 0.155 | 0.18 | 0.69 | 0.12 | 0.12 | 0.117 | 0.509 | 0.115 | 0.104 | 0.141 | 0.201 | 0.151 | 0.165 | 0.155 | 0.531 | 0.153 | 0.15 | 0.138
13 | UMC-11 | 0.405 | 0.204 | 0.179 | 0.196 | 0.133 | 0.103 | 0.113 | 0.102 | 0.442 | 0.179 | 0.143 | 0.169 | 0.209 | 0.175 | 0.142 | 0.144 | 0.229 | 0.174 | 0.167 | 0.167
14 | NCI-H596 | 0.977 | 0.846 | 0.261 | 0.18 | 0.872 | 0.276 | 0.0498 | 0.09 | 0.943 | 0.341 | 0.187 | 0.16 | 0.675 | 0.643 | 0.232 | 0.178 | 0.629 | 0.613 | 0.252 | 0.158
15 | NCI-H1755 | 1.01 | 0.894 | 0.257 | 0.266 | 1.01 | 0.596 | 0.122 | 0.123 | 1.05 | 0.829 | 0.163 | 0.184 | 0.427 | 0.194 | 0.225 | 0.191 | 0.739 | 0.452 | 0.227 | 0.242
16 | SK-LU-1 | 1.09 | 0.227 | 0.192 | 0.196 | 0.746 | 0.0883 | 0.0998 | 0.11 | 0.717 | 0.178 | 0.129 | 0.13 | 0.173 | 0.142 | 0.134 | 0.135 | 0.65 | 0.241 | 0.233 | 0.208
17 | NCI-H647 | 0.713 | 0.0972 | 0.0714 | 0.0765 | 0.764 | 0.0454 | 0.0549 | 0.0648 | 0.31 | 0.0588 | 0.0482 | 0.0727 | 0.104 | 0.0306 | 0.0319 | 0.042 | 0.494 | 0.079 | 0.0693 | 0.0788
18 | SW 1573 | 0.83 | 0.133 | 0.0862 | 0.081 | 0.919 | 0.0461 | 0.0459 | 0.0437 | 1.25 | 0.575 | 0.0951 | 0.0867 | 0.161 | 0.0578 | 0.0571 | 0.06 | 0.444 | 0.071 | 0.0779 | 0.0742
19 | HCC-15 | 0.772 | 0.154 | 0.114 | 0.114 | 0.587 | 0.244 | 0.0855 | 0.0945 | 0.63 | 0.104 | 0.0985 | 0.0923 | 0.424 | 0.086 | 0.0767 | 0.095 | 0.715 | 0.355 | 0.121 | 0.124
20 | NCI-H2126 | 1.03 | 0.563 | 0.247 | 0.207 | 0.868 | 0.607 | 0.221 | 0.197 | 0.784 | 0.354 | 0.204 | 0.231 | 0.54 | 0.187 | 0.212 | 0.187 | 0.817 | 0.345 | 0.176 | 0.194
21 | NCI-H2085 | 1.07 | 0.685 | 0.27 | 0.268 | 1.14 | 0.201 | 0.154 | 0.172 | 0.712 | 0.238 | 0.249 | 0.26 | 0.223 | 0.184 | 0.218 | 0.229 | 0.907 | 0.503 | 0.221 | 0.214
22 | BEN | 1.06 | 0.812 | 0.214 | 0.257 | 0.102 | 0.0524 | 0.0833 | 0.0414 | 0.731 | 0.343 | 0.166 | 0.186 | 0.362 | 0.435 | 0.157 | 0.153 | 0.67 | 0.63 | 0.345 | 0.308
23 | PC-14 | 0.766 | 0.163 | 0.0662 | 0.0529 | 0.78 | 0.0911 | 0.0667 | 0.0708 | 0.305 | 0.221 | 0.106 | 0.0778 | 0.153 | 0.0351 | 0.0238 | 0.0244 | 0.737 | 0.251 | 0.0426 | 0.0456
24 | NCI-H2228 | 1.21 | 0.434 | 0.123 | 0.161 | 0.882 | 0.174 | 0.0319 | 0.0438 | 0.764 | 0.112 | 0.0806 | 0.11 | 0.399 | 0.106 | 0.0787 | 0.0912 | 0.749 | 0.213 | 0.131 | 0.136
25 | COR-L23 | 0.891 | 0.162 | 0.0991 | 0.103 | 0.994 | 0.0863 | 0.066 | 0.0652 | 0.688 | 0.0875 | 0.0701 | 0.0804 | 0.349 | 0.0817 | 0.0588 | 0.0557 | 0.41 | 0.0812 | 0.087 | 0.0797
26 | NCI-H1915 | 0.69 | 0.202 | 0.159 | 0.12 | 0.759 | 0.267 | 0.058 | 0.0578 | 0.715 | 0.134 | 0.102 | 0.111 | 0.301 | 0.149 | 0.121 | 0.123 | 0.534 | 0.291 | 0.116 | 0.104
